Results from patent US20080031944A1, “Stabilization of lorazepam” (CIMA LABS INC., priority 2006, published 2008).

Assay: Stability of lorazepam with ODT excipients and coatings

Q: With O=C1Nc2ccc(Cl)cc2C(c2ccccc2Cl)=NC1O (centres unmarked) [lorazepam, 7-chloro-5-(2-chlorophenyl)-1,3-dihydro-3-hydroxy-2H-1,4-benzodiazepin-2-one] as the molecule, how does the stability when coated (lorazepam coated with EUDRAGIT® E-100) read?
A: The stability when coated was “unstable”.

Q: And the “stability with ODT excipients” value (with mannitol and super disintegrants such as crosslinked PVP)?
A: Its value is “unstable”.
